Measured values: the kinase profiling compilation of Christmann-Franck et al. (2016)

What was measured:
Test in all cases: KINOMEscan competition binding
Settings in all cases: compound 10.0 µM
NEK9 (human) = NEK9 (human) (UniProt Q8TD19)
PAK2 (human) = PAK2 (human) (UniProt Q13177)
MLTK (human) = MLTK (human) (UniProt Q9NYL2)
TLK2 (human) = TLK2 (human) (UniProt Q86UE8)
TGFBR1 (human) = TGFBR1 (human) (UniProt P36897)
ACVR1 (human) = ACVR1 (human) (UniProt Q04771)
PHKG2 (human) = PHKG2 (human) (UniProt P15735)
DCLK2 (human) = DCLK2 (human) (UniProt Q8N568)
LYN (human) = LYN (human) (UniProt P07948)
PTK2B (human) = PTK2B (human) (UniProt Q14289)
PHKG1 (human) = PHKG1 (human) (UniProt Q16816)
GSK3A (human) = GSK3A (human) (UniProt P49840)
RET (human) = RET (human) (UniProt P07949)
ADCK4 (human) = ADCK4 (human) (UniProt Q96D53)
CDK16 (human) = CDK16 (human) (UniProt Q00536)
NEK1 (human) = NEK1 (human) (UniProt Q96PY6)
RPS6KA6 KD2 (human) = RPS6KA6 KD2 (human) (UniProt Q9UK32)
RIOK3 (human) = RIOK3 (human) (UniProt O14730)
CAMKK2 (human) = CAMKK2 (human) (UniProt Q96RR4)
MAP3K11 (human) = MAP3K11 (human) (UniProt Q16584)
ACVR2B (human) = ACVR2B (human) (UniProt Q13705)
AURKB (human) = AURKB (human) (UniProt Q96GD4)
STK25 (human) = STK25 (human) (UniProt O00506)
MAP3K4 (human) = MAP3K4 (human) (UniProt Q9Y6R4)
MAP3K4 (human), sequence (Q9Y6R4 whole entry, looked up): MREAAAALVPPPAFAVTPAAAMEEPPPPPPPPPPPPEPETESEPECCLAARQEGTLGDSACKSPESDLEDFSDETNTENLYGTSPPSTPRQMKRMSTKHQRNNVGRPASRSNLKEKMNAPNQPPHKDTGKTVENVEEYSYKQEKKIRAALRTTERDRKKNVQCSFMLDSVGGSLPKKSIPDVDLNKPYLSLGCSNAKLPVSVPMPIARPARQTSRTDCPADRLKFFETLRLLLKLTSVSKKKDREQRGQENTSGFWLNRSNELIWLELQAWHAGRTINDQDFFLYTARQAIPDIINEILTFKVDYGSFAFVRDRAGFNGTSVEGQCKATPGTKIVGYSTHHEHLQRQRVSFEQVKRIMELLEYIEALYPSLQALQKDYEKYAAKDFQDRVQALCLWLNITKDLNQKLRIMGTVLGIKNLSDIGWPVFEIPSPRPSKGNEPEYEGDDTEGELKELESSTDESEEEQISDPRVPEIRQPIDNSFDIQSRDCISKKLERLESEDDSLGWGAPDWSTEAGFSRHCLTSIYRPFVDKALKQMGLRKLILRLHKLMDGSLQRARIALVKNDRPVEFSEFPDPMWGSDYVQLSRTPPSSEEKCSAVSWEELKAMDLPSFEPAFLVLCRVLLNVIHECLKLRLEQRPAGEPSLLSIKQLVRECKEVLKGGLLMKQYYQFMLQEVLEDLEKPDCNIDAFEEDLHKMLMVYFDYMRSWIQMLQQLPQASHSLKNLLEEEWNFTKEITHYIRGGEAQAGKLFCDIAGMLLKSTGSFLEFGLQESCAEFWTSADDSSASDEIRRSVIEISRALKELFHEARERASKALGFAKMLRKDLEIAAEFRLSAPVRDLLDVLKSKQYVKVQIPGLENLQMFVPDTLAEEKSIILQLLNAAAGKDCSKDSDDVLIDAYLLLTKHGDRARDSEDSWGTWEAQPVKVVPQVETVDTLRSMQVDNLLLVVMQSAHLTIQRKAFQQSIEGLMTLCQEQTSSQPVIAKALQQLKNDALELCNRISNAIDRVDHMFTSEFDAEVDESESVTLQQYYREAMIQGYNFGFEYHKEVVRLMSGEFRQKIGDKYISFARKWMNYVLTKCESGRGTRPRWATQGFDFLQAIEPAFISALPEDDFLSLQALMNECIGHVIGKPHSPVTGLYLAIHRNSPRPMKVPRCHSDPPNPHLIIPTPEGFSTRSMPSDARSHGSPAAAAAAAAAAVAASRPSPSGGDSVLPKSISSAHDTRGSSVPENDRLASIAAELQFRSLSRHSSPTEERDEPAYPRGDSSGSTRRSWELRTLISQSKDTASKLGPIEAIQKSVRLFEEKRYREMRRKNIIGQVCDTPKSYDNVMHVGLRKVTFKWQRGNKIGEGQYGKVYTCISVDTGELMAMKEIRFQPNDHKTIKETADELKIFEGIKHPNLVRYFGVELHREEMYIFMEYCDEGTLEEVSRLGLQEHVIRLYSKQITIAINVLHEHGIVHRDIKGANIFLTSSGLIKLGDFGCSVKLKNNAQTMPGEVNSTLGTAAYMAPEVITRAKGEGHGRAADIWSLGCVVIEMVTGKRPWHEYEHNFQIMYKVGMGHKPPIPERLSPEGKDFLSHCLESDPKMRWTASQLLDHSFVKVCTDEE

LATS1 (human) = LATS1 (human) (UniProt O95835)
PIK3CB (human) = PIK3CB (human) (UniProt P42338)
CDK7 (human) = CDK7 (human) (UniProt P50613)
PRKACA (human) = PRKACA (human) (UniProt P17612)
ULK1 (human) = ULK1 (human) (UniProt O75385)
PDGFRA (human) = PDGFRA (human) (UniProt P16234)
DAPK1 (human) = DAPK1 (human) (UniProt P53355)
DAPK1 (human), sequence (P53355 whole entry, looked up): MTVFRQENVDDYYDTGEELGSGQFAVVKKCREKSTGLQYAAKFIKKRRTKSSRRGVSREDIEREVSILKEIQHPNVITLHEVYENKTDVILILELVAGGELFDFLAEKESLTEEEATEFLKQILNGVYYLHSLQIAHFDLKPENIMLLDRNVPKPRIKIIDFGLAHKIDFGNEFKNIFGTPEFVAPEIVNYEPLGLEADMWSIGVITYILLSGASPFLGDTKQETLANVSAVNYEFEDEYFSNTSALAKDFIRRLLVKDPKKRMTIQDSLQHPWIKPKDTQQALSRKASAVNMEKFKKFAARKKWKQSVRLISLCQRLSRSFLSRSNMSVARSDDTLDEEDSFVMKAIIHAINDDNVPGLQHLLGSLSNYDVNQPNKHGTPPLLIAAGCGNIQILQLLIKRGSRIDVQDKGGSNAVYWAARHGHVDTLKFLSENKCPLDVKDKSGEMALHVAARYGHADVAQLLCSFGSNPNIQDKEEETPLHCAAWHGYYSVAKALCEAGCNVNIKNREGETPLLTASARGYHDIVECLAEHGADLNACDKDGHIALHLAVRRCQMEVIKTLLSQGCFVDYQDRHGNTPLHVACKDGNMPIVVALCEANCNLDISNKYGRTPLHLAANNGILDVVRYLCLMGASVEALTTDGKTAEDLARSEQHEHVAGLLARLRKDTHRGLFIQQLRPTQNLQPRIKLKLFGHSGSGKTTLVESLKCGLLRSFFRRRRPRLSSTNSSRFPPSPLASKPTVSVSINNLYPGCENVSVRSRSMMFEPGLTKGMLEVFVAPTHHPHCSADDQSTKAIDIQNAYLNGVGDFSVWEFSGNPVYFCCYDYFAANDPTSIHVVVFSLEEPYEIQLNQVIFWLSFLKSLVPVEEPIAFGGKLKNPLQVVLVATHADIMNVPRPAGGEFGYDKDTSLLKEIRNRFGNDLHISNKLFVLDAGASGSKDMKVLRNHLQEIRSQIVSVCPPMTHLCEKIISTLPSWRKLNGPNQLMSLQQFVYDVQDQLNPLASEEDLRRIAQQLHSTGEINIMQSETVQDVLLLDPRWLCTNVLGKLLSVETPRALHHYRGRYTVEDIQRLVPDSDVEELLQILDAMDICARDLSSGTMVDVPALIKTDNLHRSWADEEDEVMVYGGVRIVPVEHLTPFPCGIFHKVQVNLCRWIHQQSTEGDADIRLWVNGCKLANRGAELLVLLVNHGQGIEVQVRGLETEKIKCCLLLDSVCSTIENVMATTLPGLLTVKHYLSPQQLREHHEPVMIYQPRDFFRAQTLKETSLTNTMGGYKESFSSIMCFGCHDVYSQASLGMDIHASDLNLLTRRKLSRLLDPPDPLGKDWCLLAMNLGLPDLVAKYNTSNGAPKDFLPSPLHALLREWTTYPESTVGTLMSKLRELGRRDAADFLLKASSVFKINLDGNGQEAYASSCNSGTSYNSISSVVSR

[1] = target: JAK2 JH1 catalytic (human) (UniProt O60674)
ANKK1 (human) = ANKK1 (human) (UniProt Q8NFD2)
EPHA8 (human) = EPHA8 (human) (UniProt P29322)
EPHA8 (human), sequence (P29322 whole entry, looked up): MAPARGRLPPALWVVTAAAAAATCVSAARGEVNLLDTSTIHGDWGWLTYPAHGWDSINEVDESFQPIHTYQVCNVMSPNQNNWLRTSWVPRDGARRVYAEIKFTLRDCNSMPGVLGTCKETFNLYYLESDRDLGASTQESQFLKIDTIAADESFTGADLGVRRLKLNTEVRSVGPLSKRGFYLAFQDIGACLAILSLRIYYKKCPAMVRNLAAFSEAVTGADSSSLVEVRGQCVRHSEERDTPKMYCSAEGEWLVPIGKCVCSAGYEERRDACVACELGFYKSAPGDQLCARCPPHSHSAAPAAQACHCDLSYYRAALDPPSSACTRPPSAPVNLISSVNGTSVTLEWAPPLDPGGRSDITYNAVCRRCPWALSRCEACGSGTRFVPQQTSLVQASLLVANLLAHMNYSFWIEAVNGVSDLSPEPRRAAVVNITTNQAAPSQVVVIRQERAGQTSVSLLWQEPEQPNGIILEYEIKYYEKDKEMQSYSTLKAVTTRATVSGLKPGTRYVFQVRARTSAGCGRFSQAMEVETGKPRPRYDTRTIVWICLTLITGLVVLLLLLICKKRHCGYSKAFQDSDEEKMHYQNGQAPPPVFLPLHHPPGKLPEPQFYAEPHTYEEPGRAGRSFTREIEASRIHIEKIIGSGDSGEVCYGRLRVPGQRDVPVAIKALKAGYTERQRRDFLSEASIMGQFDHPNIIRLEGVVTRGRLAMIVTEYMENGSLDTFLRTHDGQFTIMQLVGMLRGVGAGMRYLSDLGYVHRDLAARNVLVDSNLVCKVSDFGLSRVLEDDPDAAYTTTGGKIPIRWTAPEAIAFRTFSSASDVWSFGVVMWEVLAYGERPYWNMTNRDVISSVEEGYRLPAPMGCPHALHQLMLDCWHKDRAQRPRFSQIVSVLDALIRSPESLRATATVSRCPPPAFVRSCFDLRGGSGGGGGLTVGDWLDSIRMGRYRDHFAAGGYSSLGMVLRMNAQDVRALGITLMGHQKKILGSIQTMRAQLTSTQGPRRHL

NUAK1 (human) = NUAK1 (human) (UniProt O60285)
MYO3A (human) = MYO3A (human) (UniProt Q8NEV4)
CDK14 (human) = CDK14 (human) (UniProt O94921)
PLK1 (human) = PLK1 (human) (UniProt P53350)
CSNK1D (human) = CSNK1D (human) (UniProt P48730)
CSNK1G1 (human) = CSNK1G1 (human) (UniProt Q9HCP0)

TGFBR1 (human), sequence (P36897 whole entry, looked up): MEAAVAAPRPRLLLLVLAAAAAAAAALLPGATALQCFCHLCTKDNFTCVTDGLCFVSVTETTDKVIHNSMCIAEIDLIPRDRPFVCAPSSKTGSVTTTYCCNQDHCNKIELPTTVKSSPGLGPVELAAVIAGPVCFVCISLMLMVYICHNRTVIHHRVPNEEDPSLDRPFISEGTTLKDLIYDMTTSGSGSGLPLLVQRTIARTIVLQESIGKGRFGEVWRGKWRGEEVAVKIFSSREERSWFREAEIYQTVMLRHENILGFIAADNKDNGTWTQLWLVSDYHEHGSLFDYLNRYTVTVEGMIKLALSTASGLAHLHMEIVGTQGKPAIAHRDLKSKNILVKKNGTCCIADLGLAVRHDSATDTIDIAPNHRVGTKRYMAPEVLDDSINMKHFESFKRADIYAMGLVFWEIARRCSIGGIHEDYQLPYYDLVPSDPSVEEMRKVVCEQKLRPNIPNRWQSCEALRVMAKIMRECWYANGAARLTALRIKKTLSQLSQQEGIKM
PAK2 (human), sequence (Q13177 whole entry, looked up): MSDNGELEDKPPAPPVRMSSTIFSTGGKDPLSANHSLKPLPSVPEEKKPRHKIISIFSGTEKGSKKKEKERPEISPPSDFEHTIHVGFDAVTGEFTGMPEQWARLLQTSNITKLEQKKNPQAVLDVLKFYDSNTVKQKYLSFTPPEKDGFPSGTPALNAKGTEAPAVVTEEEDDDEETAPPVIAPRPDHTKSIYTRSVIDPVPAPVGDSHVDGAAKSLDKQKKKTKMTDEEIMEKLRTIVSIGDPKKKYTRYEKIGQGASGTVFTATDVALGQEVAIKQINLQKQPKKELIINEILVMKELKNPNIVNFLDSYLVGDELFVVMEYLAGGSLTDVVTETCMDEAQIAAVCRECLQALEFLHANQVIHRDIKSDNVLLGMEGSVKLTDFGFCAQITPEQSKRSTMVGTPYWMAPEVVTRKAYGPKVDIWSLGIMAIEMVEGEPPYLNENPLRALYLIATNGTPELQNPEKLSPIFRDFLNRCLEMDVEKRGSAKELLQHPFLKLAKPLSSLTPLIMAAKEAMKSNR

Structure (SMILES)	kinase still bound, per cent of control (NEK9 (human))	kinase still bound, per cent of control (PAK2 (human))	kinase still bound, per cent of control (MLTK (human))	kinase still bound, per cent of control (TGFBR1 (human))	kinase still bound, per cent of control (ACVR1 (human))	kinase still bound, per cent of control (PHKG2 (human))	kinase still bound, per cent of control (DCLK2 (human))	kinase still bound, per cent of control (LYN (human))	kinase still bound, per cent of control (PHKG1 (human))	kinase still bound, per cent of control (GSK3A (human))	kinase still bound, per cent of control (ADCK4 (human))	kinase still bound, per cent of control (NEK1 (human))	kinase still bound, per cent of control (RPS6KA6 KD2 (human))	kinase still bound, per cent of control (RIOK3 (human))	kinase still bound, per cent of control (CAMKK2 (human))	kinase still bound, per cent of control (MAP3K11 (human))	kinase still bound, per cent of control (ACVR2B (human))	kinase still bound, per cent of control (AURKB (human))	kinase still bound, per cent of control (STK25 (human))	kinase still bound, per cent of control (MAP3K4 (human))	further results
CC[C@@H]1C(=O)N(C)c2cnc(Nc3ccc(C(=O)NC4CCN(C)CC4)cc3OC)nc2N1C1CCCC1	100%	100%	100%	100%	100%	20%	13%	100%	100%	100%	100%	100%	8.3%	100%	1.9%	100%	100%	100%	100%	100%	kinase still bound, per cent of control (TLK2 (human)): 100%; kinase still bound, per cent of control (PTK2B (human)): 20%; kinase still bound, per cent of control (RET (human)): 100%; kinase still bound, per cent of control (CDK16 (human)): 100%; kinase still bound, per cent of control (LATS1 (human)): 100%; kinase still bound, per cent of control (PIK3CB (human)): 100%; kinase still bound, per cent of control (CDK7 (human)): 100%; kinase still bound, per cent of control (PRKACA (human)): 100%; kinase still bound, per cent of control (ULK1 (human)): 100%; kinase still bound, per cent of control (PDGFRA (human)): 100%; kinase still bound, per cent of control (DAPK1 (human)): 5.4%; kinase still bound, per cent of control [1]: 100%; kinase still bound, per cent of control (ANKK1 (human)): 100%; kinase still bound, per cent of control (EPHA8 (human)): 100%; kinase still bound, per cent of control (NUAK1 (human)): 100%; kinase still bound, per cent of control (MYO3A (human)): 100%; kinase still bound, per cent of control (CDK14 (human)): 100%
CCOc1cc2ncc(C#N)c(Nc3ccc(OCc4ccccn4)c(Cl)c3)c2cc1NC(=O)/C=C/CN(C)C	100%	34%	70%	100%	100%	92%	100%	34%	92%	97%	98%	70%	97%	97%	89%	85%	100%	75%	13%	4.8%	kinase still bound, per cent of control (PTK2B (human)): 90%; kinase still bound, per cent of control (PLK1 (human)): 57%; kinase still bound, per cent of control (LATS1 (human)): 90%; kinase still bound, per cent of control (PIK3CB (human)): 100%; kinase still bound, per cent of control (CSNK1D (human)): 60%; kinase still bound, per cent of control (CDK7 (human)): 68%; kinase still bound, per cent of control (PRKACA (human)): 95%; kinase still bound, per cent of control (ULK1 (human)): 100%; kinase still bound, per cent of control (PDGFRA (human)): 100%; kinase still bound, per cent of control (DAPK1 (human)): 98%; kinase still bound, per cent of control (ANKK1 (human)): 100%; kinase still bound, per cent of control (EPHA8 (human)): 78%; kinase still bound, per cent of control (NUAK1 (human)): 61%; kinase still bound, per cent of control (MYO3A (human)): 98%; kinase still bound, per cent of control (CDK14 (human)): 97%
Cc1ccc2nc(NCCN)c3ncc(C)n3c2c1	100%	94%	96%	100%	100%	79%	100%	100%	95%	100%	24%	78%	40%	100%	93%	87%	100%	67%	79%	100%	kinase still bound, per cent of control (TLK2 (human)): 88%; kinase still bound, per cent of control (PTK2B (human)): 100%; kinase still bound, per cent of control (RET (human)): 100%; kinase still bound, per cent of control (CSNK1G1 (human)): 94%; kinase still bound, per cent of control (PLK1 (human)): 100%; kinase still bound, per cent of control (LATS1 (human)): 100%; kinase still bound, per cent of control (PIK3CB (human)): 88%; kinase still bound, per cent of control (CSNK1D (human)): 45%; kinase still bound, per cent of control (CDK7 (human)): 6.3%; kinase still bound, per cent of control (PRKACA (human)): 100%; kinase still bound, per cent of control (DAPK1 (human)): 47%; kinase still bound, per cent of control [1]: 100%; kinase still bound, per cent of control (ANKK1 (human)): 99%; kinase still bound, per cent of control (EPHA8 (human)): 100%; kinase still bound, per cent of control (NUAK1 (human)): 88%; kinase still bound, per cent of control (MYO3A (human)): 100%; kinase still bound, per cent of control (CDK14 (human)): 100%
O=C(O)c1ccc(Nc2ncc3c(n2)-c2ccc(Cl)cc2C(c2c(F)cccc2F)=NC3)cc1	100%	71%	93%	98%	100%	73%	94%	25%	100%	100%	95%	56%	58%	100%	72%	84%	100%	0.3%	56%	36%	kinase still bound, per cent of control (TLK2 (human)): 83%; kinase still bound, per cent of control (RET (human)): 59%; kinase still bound, per cent of control (CDK16 (human)): 100%; kinase still bound, per cent of control (CSNK1G1 (human)): 37%; kinase still bound, per cent of control (PLK1 (human)): 100%; kinase still bound, per cent of control (LATS1 (human)): 98%; kinase still bound, per cent of control (PIK3CB (human)): 100%; kinase still bound, per cent of control (CDK7 (human)): 77%; kinase still bound, per cent of control (PRKACA (human)): 47%; kinase still bound, per cent of control (ULK1 (human)): 40%; kinase still bound, per cent of control (PDGFRA (human)): 56%; kinase still bound, per cent of control (DAPK1 (human)): 48%; kinase still bound, per cent of control [1]: 100%; kinase still bound, per cent of control (ANKK1 (human)): 100%; kinase still bound, per cent of control (EPHA8 (human)): 99%; kinase still bound, per cent of control (NUAK1 (human)): 67%; kinase still bound, per cent of control (MYO3A (human)): 80%; kinase still bound, per cent of control (CDK14 (human)): 100%
